In patent US12090164B2, “Genotype-agnostic rescue of cystic fibrosis with small molecule bicarbonate channels” (The Board of Trustees of the University of Illinois, priority 2017, dated 2024):
Entries after “also recorded” stand apart in the source; their conditions may differ.

Columns and labels:
[1] = test system: non-CF primary cultured epithelia; test: ASL pH in non-CF primary cultured epithelia; assay type: cell-based, human; details: AmB 2 μM, 48 h
Protocol: Airway epithelial cells were obtained from human trachea and bronchi of CF and non-CF specimens obtained from the Iowa Donor Network, either as post-mortem specimens or from tissue deemed not fit for transplant. Studies were approved by the University of Iowa Institutional Review Board. After pronase enzymatic digestion, cells were seeded onto collagen-coated semi-permeable membranes (0.33-1.12 cm^2, Corning 3470 polyester, 3460 polyester, 3413 polycarbonate) and grown at an air-liquid interface (52). Airway epithelial cell cultures were analyzed after they had differentiated and at least 14 days post-seeding.
Small diameter NuLi, CuFi, and primary cultured epithelia were used for this experiment (0.33 cm^2). The ratiometric pH indicator SNARF-conjugated dextran (Molecular Probes) was used to measure ASL pH. […] ASL pH was measured 2 hr later (3, 4, 25). SNARF was excited at 488 nm and emission was recorded at 580 nm and 640 nm using a Zeiss LSM 800 microscope at 40× water immersion for cell line cultures and a Zeiss LSM 510 microscope for primary cultures. To generate a standard curve for pH determination, SNARF was dissolved in colorless pH standards and fluorescence ratios were converted to pH. […]
In all experiments, ASL pH of compound-treated epithelia was measured compared the results to vehicle-treated epithelia. […]

[2] = test system: CuFi-1 (ΔF508/ΔF508) epithelia; test: ASL pH in cultured CF airway epithelia (SNARF-dextran); assay type: cell-based, human
Protocol: (§1) Small diameter NuLi, CuFi, and primary cultured epithelia were used for this experiment (0.33 cm^2). The ratiometric pH indicator SNARF-conjugated dextran (Molecular Probes) was used to measure ASL pH. SNARF powder was suspended via sonication in perfluorocarbon (FC-72, Sigma) and distributed onto the apical surface. ASL pH was measured 2 hr later (3, 4, 25). SNARF was excited at 488 nm and emission was recorded at 580 nm and 640 nm using a Zeiss LSM 800 microscope at 40× water immersion for cell line cultures and a Zeiss LSM 510 microscope for primary cultures. To generate a standard curve for pH determination, SNARF was dissolved in colorless pH standards and fluorescence ratios were converted to pH.
(§2) Agents tested in this assay were first lyophilized into powder and then suspended in the appropriate volume of perfluorocarbon (FC-72, Sigma) and sonicated for 1 minute to suspend. AmBisome should not be sonicated; instead, the fine powder was suspended by vortexing.
(§3) In all experiments, ASL pH of compound-treated epithelia was measured compared the results to vehicle-treated epithelia.
(§4) For apical AmB administration, cultured airway epithelia were incubated for 30 min-48 hrs at 37° C. before measurement of ASL pH. For AmB-cholesterol complex and C35deOAmB administration, cultured airway epithelia were incubated for 48 hrs at 37° C. before measurement of ASL pH. To test the effect of […] ATPase inhibition, AmB was administered 47 hours prior to 10 mM ouabain addition, and cultured airway epithelia were incubated for an additional 1 hr at 37° C. before measurement of ASL pH. For 10 μM ivacaftor/10 μM forskolin administration, cultured airway epithelia were incubated for 2 hrs at 37° C. before measurement of ASL pH (25). For basolateral AmB administration, a 2 mM stock of AmB in DMSO was diluted 1000-fold to a final concentration of 2 μM in USG media. The basolateral media of cultured airway epithelia was replaced with the AmB-containing USG media and incubated for 48 hrs at 37° C. before measurement of ASL pH.

[3] = test system: CuFi-4 (G551D/ΔF508) epithelia; test: as above; assay type: cell-based, human
Protocol: as §1, §2, §3, §4

[4] = aerosolized / nebulized; cited from earlier work
[5] = test system: CuFi-1 (ΔF508/ΔF508) epithelia; test: Ussing chamber short-circuit current response to CFTR activation; assay type: cell-based, human; details: AmB 2 μM, 48 h
Protocol: To assess the presence of membrane-expressed CFTR, differentiated cultures of NuLi and CuFi-1 epithelia grown on Corning Costar 0.4 μm 24-well plate Transwell Clear Polyester Membrane inserts were used. NuLi and CuFi-1 epithelia were treated with 20 μL of perfluorocarbon (FC-72, Sigma) vehicle or 2 μM amphotericin B (AmB) sonicated into a suspension in FC-72. After 48 hours of incubation, the epithelia were mounted in a dual-channel Ussing chamber (Warner U2500) using the culture cup insert for Transwell adapter, 6.5 mm (Warner U9924T-06) and bathed on both the apical and basolateral sides with a HCO3^− solution (120 mM NaCl, 25 mM NaHCO3, 5 mM KCl, 2 mM CaC2, 1.2 mM MgC2, 13.75 mM NaH2PO4, pH 7.0) at 37° C. and gassed with compressed air. Dextrose was added to this solution immediately prior to experiments to a final concentration of 5.6 mM. Epithelial sodium channel (ENaC) and calcium-activated chloride channel (CaCC) were inhibited by apical addition of 1 μM amiloride and 1 μM DIDS (4,4′-disothiocyanostilbene-2,2′-disulfonic acid), respectively, to achieve a baseline for permeabilization. 10 μM forskolin/100 μM IBMX (3-isobutyl-1-methylxanthine) added apically was used to activate CFTR, and 1 μM CFTRinh-172 was used to inhibit CFTR. Each successive addition of reagent was allowed approximately 10 minutes to equilibrate before the addition of the next reagent (15).

[6] = test system: CuFi-1 (ΔF508/ΔF508) epithelia; test: Basolateral to apical H14CO3- transport; assay type: cell-based, human
Protocol: (§5) Small diameter NuLi and CuFi cultured epithelia were used for this experiment (0.33 cm^2). ^14C-labeled sodium HCO3^− was obtained as a sterile 35.7 mM aqueous solution pH 9.5 (MP Biomedicals 0117441H). All experiments were run less than 2 months post seeding. Fresh USG media was added to the basolateral side prior to experimentation. The apical membrane was treated with 20 μL of vehicle, AmB, or ivacaftor/forskolin as a suspension in perfluorocarbon-72 (Sigma Aldrich), and the cultured epithelia were incubated for 48 hours, 7 days, 14 days, or 28 days at 37° C. in a 5% C02 atmosphere. After the end of the treatment period, 5 μL of a 1.4 mM H^14CO3^− stock solution in USG media was added to the basolateral media. The cultured epithelia were then incubated at 37° C. for 10 minutes. After 10 minutes, the apical membrane of the cultured epithelia was immediately washed with 200 μL of PBS. The ASL wash and a 200 μL aliquot of the basolateral media were diluted in scintillation cocktail and analyzed via liquid scintillation counting (23).

[7] = test system: CuFi-4 (G551D/ΔF508) epithelia; test: Basolateral to apical H14CO3- transport; assay type: cell-based, human; details: AmB 2 μM, ivacaftor/forskolin 10 μM
Protocol: as §5

[8] = in vivo; cited from earlier work

SMILES: C[C@@H]1[C@H](O)[C@@H](C)/C=C/C=C/C=C/C=C/C=C/C=C/C=C/[C@H](O[C@@H]2O[C@H](C)[C@@H](O)[C@H](N)[C@@H]2O)C[C@@H]2O[C@](O)(C[C@@H](O)C[C@@H](O)[C@H](O)CC[C@@H](O)C[C@@H](O)CC(=O)O[C@H]1C)C[C@H](O)[C@H]2C(=O)O [AmB, amphotericin B]
- ASL pH of non-CF primary epithelia [1]: had no effect on the pH of non-CF primary cultured epithelia
- ASL pH, basolateral addition of AmB ([2]; AmB 2 μM basolateral, 48 h): an increase in ASL pH was not observed; also recorded: No increase in pH was observed; also recorded: did not raise ASL pH or increase H^14CO3^− secretion
- ASL pH, apical addition ([2]; AmB or C35deOAmB 2 μM, ivacaftor/forskolin 10 μM, 2 h, vs vehicle): increases ASL pH relative to an untreated CuFi-1 control over 2 hours; also recorded: progressive increase in pH over 2 hours; also recorded: increased the ASL pH; also recorded: increased both; also recorded: progressively increased ASL pH over 2 hours
- time for which the increase in ASL pH is sustained ([2]; apical AmB 2 μM): at least 48 hours
- AmB concentration at which increase in ASL pH reaches a maximum ([2]; apical addition): 2 μM
- concentration dependence of ASL pH increase ([2]; increasing concentrations up to 100 μM AmB): increases ASL pH in CuFi-1 monolayers at low but not at high concentrations; also recorded: decreases at higher concentrations; also recorded: ASL pH increased and then fell with progressively increasing concentrations of AmB
- increase in ASL pH ([3]; AmB 2 μM, ivacaftor/forskolin 10 μM): ~0.2 unit
- ASL pH ([3]; apical AmB 2 μM 48 h, ivacaftor/forskolin 10 μM 2 h): increase ASL pH; also recorded: increased the ASL pH; also recorded: increased ASL pH and H^14CO3^− secretion
- safety of delivery to the lungs [4]: safely delivered to the lungs in aerosolized form
- short circuit current response to forskolin/IBMX of AmB-treated epithelia [5]: did not show an increase in short circuit current in response to forskolin/IBMX; also recorded: did not respond to chemical activation of CFTR
- time for which increase in H^14CO3^− secretion is sustained ([6]; AmB 2 μM left on epithelia): at least 7 days
- basolateral to apical H^14CO3^− transport, apical addition ([6]; over 10 minutes, AmB or C35deOAmB 2 μM, ivacaftor/forskolin 10 μM): restored normal bicarbonate transport; also recorded: increased the rate of ^14C bicarbonate to match that observed in NuLi epithelia; also recorded: effective in both genotypes; also recorded: increased both
- H^14CO3^− transepithelial transport [7]: increase H^14CO3-transepithelial transport; also recorded: effective in both genotypes; also recorded: the same increase in rate of bicarbonate efflux; also recorded: increased ASL pH and H^14CO3^− secretion
- toxicity to humans [8]: significant toxicity to humans
